In PMC9090415, “Discovery of small molecule inhibitors of Plasmodium falciparum apicoplast DNA polymerase” (Journal of Enzyme Inhibition and Medicinal Chemistry, 2022):

Target: T1, bacteriophage T4 DNA polymerase (Enterobacteria phage T4, UniProt P04415)
T1 construct: made in house
T1 sequence (P04415 1-898): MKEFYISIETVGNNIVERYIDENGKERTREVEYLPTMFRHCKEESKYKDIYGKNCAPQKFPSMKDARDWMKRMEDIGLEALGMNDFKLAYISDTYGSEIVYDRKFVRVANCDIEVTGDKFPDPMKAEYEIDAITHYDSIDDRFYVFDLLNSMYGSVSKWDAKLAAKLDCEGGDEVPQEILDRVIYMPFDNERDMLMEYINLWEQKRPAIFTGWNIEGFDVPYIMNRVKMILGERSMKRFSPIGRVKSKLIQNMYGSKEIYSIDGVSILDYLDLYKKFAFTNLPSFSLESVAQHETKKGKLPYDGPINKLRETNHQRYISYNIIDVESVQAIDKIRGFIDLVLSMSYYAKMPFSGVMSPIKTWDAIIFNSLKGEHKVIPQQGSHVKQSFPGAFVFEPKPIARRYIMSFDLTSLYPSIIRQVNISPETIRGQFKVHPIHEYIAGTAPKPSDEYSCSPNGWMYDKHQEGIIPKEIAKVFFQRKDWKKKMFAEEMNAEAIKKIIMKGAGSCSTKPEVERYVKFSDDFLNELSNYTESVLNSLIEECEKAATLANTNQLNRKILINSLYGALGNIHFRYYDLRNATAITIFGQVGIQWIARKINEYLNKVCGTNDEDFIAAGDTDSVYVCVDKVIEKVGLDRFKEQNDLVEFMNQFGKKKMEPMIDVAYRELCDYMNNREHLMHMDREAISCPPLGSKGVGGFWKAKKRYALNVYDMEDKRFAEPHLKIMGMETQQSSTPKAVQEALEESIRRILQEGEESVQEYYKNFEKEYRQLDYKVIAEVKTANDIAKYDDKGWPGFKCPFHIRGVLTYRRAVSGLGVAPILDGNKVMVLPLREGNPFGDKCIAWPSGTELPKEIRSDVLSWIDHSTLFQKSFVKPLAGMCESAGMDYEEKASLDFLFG
Assay: Counter-screen against bacteriophage T4 DNA polymerase
Format: biochemical
Settings: DRC-2
How it was run: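 Purified T4 DNA polymerase, a B-family enzyme, served as the counter-screen enzyme. Compounds were tested in dose-response format and IC50 values were derived.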

Row | Compound | % inhibition T4 10' (concentration 5) | % inhibition T4 10' (concentration 20) | % inhibition T4 10' (concentration 80) | % inhibition T4 40' (concentration 2.5) | % inhibition T4 40' (concentration 5) | % inhibition T4 40' (concentration 20) | % inhibition T4 40' (concentration 40) | % inhibition T4 40' (concentration 80) | % inhibition T4 90' (concentration 5) | % inhibition T4 90' (concentration 20) | % inhibition T4 90' (concentration 40) | % inhibition T4 180' (concentration 10) | % inhibition T4 180' (concentration 20) | % inhibition T4 180' (concentration 40) | % inhibition T4 10' (concentration 10) | % inhibition T4 40' (concentration 10) | % inhibition T4 90' (concentration 10) | other results
1 | O=C1N=C(Nc2cccc(Cl)c2Cl)S/C1=C\c1ccco1 [Molecule 3, O=C1N=C(S/C/1=C\c1ccco1)Nc1cccc(c1Cl)Cl] | 29% | 30% | 13% | 26% | 29% | 30% | 29% | 13% | 27% | 30% | 30% | 29% | 27% | 30% | – | – | – | % inhibition T4 10' (concentration 2.5): 26%; % inhibition T4 10' (concentration 40): 29%
2 | O=C(NC(C(Cl)Cl)S(=O)(=O)c1ccccc1)c1ccccc1 (stereo not drawn) [KU0045239] | – | – | – | – | -21% | -26% | -26% | – | -17% | -18% | -18% | -18% | -17% | – | -19% | -19% | – | % inhibition T4 90' (concentration 2.5): -26%; % inhibition T4 180' (concentration 5): -21%
3 | O=C1C(=Cc2ccccc2O)Oc2ccc(O)cc21 [KU0196475] | – | – | 34% | 10% | 10% | – | – | – | – | – | 34% | – | – | – | – | 21% | 21% | –
4 | Cc1ccc2c(C(=O)NCCc3cccnc3)cc(NC(=O)C(C)C)cc2n1 [KU0206096] | 8% | – | 35% | 8% | – | 35% | – | – | – | 30% | 34% | – | – | 28% | 30% | – | 28% | % inhibition T4 180' (concentration 80): 34%
5 | COc1ccc(CNC(=O)Cn2nc3c(c2NC(=O)Cc2cccs2)CSC3)cc1 [Molecule 55, COc1ccc(cc1)CNC(=O)Cn1nc2c(c1NC(=O)Cc1cccs1)CSC2] | 18% | 26% | – | – | – | 28% | – | 38% | – | 26% | – | 18% | – | 28% | 26% | 26% | – | % inhibition T4 90' (concentration 80): 38%
